Source: patent US20220226480A1, “LIPID CONJUGATE PREPARED FROM SCAFFOLD MOIETY” (Integrated Nanotherapeutics Inc., priority 2019, published 2022)

Experiments:
J774.2 = assay: Pro-inflammatory cytokine expression in LPS-stimulated macrophage cell line J774.2 (qRT-PCR); format: cell-based; conditions: LNP formulation at doses equivalent to 1, 3 or 10 μM dexamethasone, 24 hours, 10 ng/mL LPS, versus control LNP
Method: The graph depicts the expression of the cytokines IL-1β (top), TNFα (middle) and IL-6 (bottom) after 24 hours of incubation of the cells with the above components at doses equivalent to 1, 3 or 10 μM of dexamethasone, followed by stimulation by 10 ng/mL lipopolysaccharide (LPS) overnight. Cytokine levels were measured by qRT-PCR and data was normalized to cells treated with control LNP without drug-lipid conjugates.
(§1) Cultured macrophage cell lines J774.2 (FIG. 8) and Raw264.7 (FIG. 9A) were incubated with immunostimulant LPS and LNP with or without ricinoleyl-dexamethasone conjugate INT-D034/INT-D035. After 24 hours, cells were harvested and were analyzed for expression of pro-Inflammatory cytokines IL1β, TNFα and IL-6. RNA was isolated from the cells and levels of pro-inflammatory cytokines ILIβ, TNFα and IL6 were determined by qRT-PCR.

CD4+ T cells = assay: Mixed lymphocyte reaction (MLR) assay, BMDCs with allogeneic CD4+ T cells; format: cell-based, mice; conditions: LNP containing 10-99 mol % conjugate; BMDCs treated 48 hours, LPS 24 hours; 5:1 or 10:1 T-to-BMDC ratio; 3 days; flow cytometry
Method: Bone marrow derived dendritic cells (BMDCs) from C57Bl/6 male mice were first treated with LNP containing various mol % of the dexamethasone or calcitriol conjugates for 48 hours and then activated by incubation with LIPS for 24 hours. They were then harvested and mixed with CD4+ T cells isolated from Balb/cJ male mice (Jackson Laboratories) at 5:1 or 10:1 T-to-BMDC ratio.
Dexamethasone and calcitriol can tolerize antigen presenting cells (APCs). […] Bone marrow derived dendritic cells (BMDCs) from C57BI/6 male mice (Charles River) were first treated with LNP containing various mol % of dexamethasone or calcitriol conjugates for 48 hours and then activated by incubation with LPS for 24 hours. They were then harvested and mixed with CD4+ T cells isolated from Balb/cl male mice (Jackson Laboratories) at 5:1 or 10:1 T-to-BMDC ratio. The levels of T cells proliferation after 3 days were quantified using flow cytometry.

Raw264.7 = assay: Pro-inflammatory cytokine expression in LPS-stimulated Raw264.7 cells (qRT-PCR); format: cell-based; conditions: LNP formulation at doses equivalent to 1, 3 or 10 μM dexamethasone, 24 hours, 10 ng/mL LPS, versus control LNP
Method: The graph depicts the expression of the cytokines IL-10 (top), TNFα (middle) and IL-6 (bottom) after 24 hours of incubation of the cells with the above components at doses equivalent to 1, 3 or 10 μM of dexamethasone, followed by stimulation by 10 ng/mL LPS overnight. Cytokine levels were measured by qRT-PCR and data was normalized to cells treated with control LNP without drug-lipid conjugates.
The graph depicts the expression of the cytokines IL-10 after 24 hours of incubation of the cells with the above components at doses equivalent to 1 or 10 μM of dexamethasone, followed by stimulation by 10 ng/mL LPS overnight. Cytokine levels were measured by qRT-PCR and data was normalized to cells treated with control LNP without drug-lipid conjugates.
as §1

[1] = Encapsulation efficiency / incorporation of pro-drug in LNP; format: physicochemical; conditions: for Encapsulation Efficiency (%): LNP containing 10 mol % conjugate, primary PC-lipid DMPC; for % Entrapment: LNP formulations containing pro-drugs (10 mol %, FIG. 6A)
Method: (§2) LNPs were prepared by dissolving 1,2-Distearoyl-sn-glycero-3-phosphocholine (DSPC) or 1,2-dimyristoyl-sn-glycero-3-phosphocholine (DMPC), cholesterol and 1,2-Distearoyl-sn-glycero-3-phosphoethanolamine-Poly(ethylene glycol) (PEG-DSPE) in ethanol. DSPC, DMPC and PEG-DSPE were purchased from Avanti Polar Lipids (Alabaster, Ala.), and cholesterol was obtained from Sigma (St Louis, Mo.).
(§3) Drug-lipid-conjugates INT-D034, INT-D035, INT-D045, INT-D046, INT-D047, INT-D048, INT-D049, INT-D050, INT-D051, INT-D053, INT-D060, INT-D061, INT-D062, INT-D063, INT-D083, INT-D085, INT-D086, INT-D088 and INT-D089 (see FIG. 3 and Example 7 for structures) were dissolved in isopropanol or THF. LNP were prepared by rapidly mixing DSPC or DMPC, cholesterol, drug-lipid conjugate, and PEG-DSPE (in molar ratio of 49/40/10/1) with phosphate-buffered saline (PBS) using a cross-junction mixer. Formulations were dialyzed against PBS to remove residual ethanol. In formulation$ with more than 10 mol % drug-lipid conjugates, the amount of phospholipid or cholesterol was reduced accordingly.
(§4) The physiochemical properties of the LNPs prepared as described above were subsequently characterized. Particle size was determined by dynamic light scattering using a Malvern Zetasizer Nano ZS (Malvern, UK) following buffer exchange into phosphate-buffered saline. Number-weighted size and distribution date was used. Lipid concentrations were determined by measuring total cholesterol using the Cholesterol E enzymatic assay kit from Wako Chemicals USA (Richmond, Va.). The morphology of LNP formulations containing LD-DEX was analyzed by cryogenic-transmission electron microscopy (cryoTEM).

[2] = Particle size and polydispersity of LNP containing pro-drug (dynamic light scattering); format: physicochemical; parameters: Size of LNP: unit not given here
Method: as §2, §3, §4

[3] = all LNP formulations at 0 to 99 mol % pro-drug concentration
[4] = LNP containing 10 mol % conjugate, primary PC-lipid DMPC
[5] = LNP formulations containing pro-drugs (10 mol %, FIG. 6A)
[6] = LNP, pro-drug concentration 10 %
[7] = LNP, pro-drug concentration 20 %
[8] = LNP, pro-drug concentration 30 %
[9] = LNP, pro-drug concentration 40 %
[10] = LNP, pro-drug concentration 50 %
[11] = LNP, pro-drug concentration 60 %
[12] = LNP, pro-drug concentration 80 %
[13] = LNP, pro-drug concentration 95 %
[14] = LNP, pro-drug concentration 98 %
[15] = LNP, pro-drug concentration 99 %

CCCCCC[C@H](C/C=C\CCCCCCCCOC(=O)CCC(=O)OCC(=O)[C@@]1(O)[C@H](C)C[C@H]2[C@@H]3CCC4=CC(=O)C=C[C@]4(C)[C@@]3(F)[C@@H](O)C[C@@]21C)OC(=O)CCCCC [INT-D034, 2-((8S,9R,10S,11S,13S,14S,16R,17R)-9-Fluoro-11,17-dihydroxy-10,13,16-trimethyl-3-oxo-6,7,8,9,10,11,12,13,14,15,16,17-dodecahydro-3H-cyclopenta[a]57ctadic57rene-17-yl)-2-oxoethyl ((R,Z)-12-(hexanoyloxy)57ctadic-9-en-1-yl) succinate]
levels of pro-inflammatory cytokines (IL1β, TNFα, IL-6) (J774.2): reduced levels of pro-inflammatory cytokines in a dose-dependent manner | allogeneic T-cell proliferation (CD4+ T cells): able to suppress allogeneic T-cell proliferation | levels of pro-inflammatory cytokines (IL1β, TNFα, IL-6) (Raw264.7): reduced levels of pro-inflammatory cytokines in a dose-dependent manner | Encapsulation Efficiency (%) [1]: 100% | % Entrapment [1]: 99% | encapsulation efficiencies [1, 3]: high | Particle Diameter (nm) [2, 4]: 72 nm | Polydispersity index (PDI) [2, 4]: 0.02 | PdI [2, 5]: 0.08 | Size of LNP [2, 5]: 70 | PdI [2, 6]: 0.064 | Size (nm) [2, 6]: 48 nm | PdI [2, 7]: 0.068 | Size (nm) [2, 7]: 45 nm | PdI [2, 8]: 0.082 | Size (nm) [2, 8]: 43 nm | PdI [2, 9]: 0.100 | Size (nm) [2, 9]: 41 nm | PdI [2, 10]: 0.085 | Size (nm) [2, 10]: 32 nm | PdI [2, 11]: 0.022 | Size (nm) [2, 11]: 48 nm | PdI [2, 12]: 0.025 | Size (nm) [2, 12]: 87 nm | PdI [2, 13]: 0.082 | Size (nm) [2, 13]: 29 nm | PdI [2, 14]: 0.014 | Size (nm) [2, 14]: 52 nm | PdI [2, 15]: 0.011 | Size (nm) [2, 15]: 86 nm | Polydispersity index (PDI) [2, 3]: ≤ 0.1 | particle diameter [2, 3]: 29-87 nm

CCCCCCCC/C=C\CCCCCCCC(=O)O[C@@H](C/C=C\CCCCCCCCOC(=O)CCC(=O)OCC(=O)[C@@]1(O)[C@H](C)C[C@H]2[C@@H]3CCC4=CC(=O)C=C[C@]4(C)[C@@]3(F)[C@@H](O)C[C@@]21C)CCCCCC [INT-D035, 2-((8S,9R,10S,11S,13S,14S,16R,17R)-9-fluoro-11,17-dihydroxy-10,13,16-trimethyl-3-oxo-6,7,8,9,10,11,12,13,14,15,16,17-dodecahydro-3H-cyclopenta[a]phenanthren-17-yl)-2-oxoethyl ((R,Z)-12-(oleoyloxy)octadec-9-en-1-yl) succinate]
levels of pro-inflammatory cytokines (IL1β, TNFα, IL-6) (J774.2): reduced levels of pro-inflammatory cytokines in a dose-dependent manner | levels of pro-inflammatory cytokines (IL1β, TNFα, IL-6) (Raw264.7): reduced levels of pro-inflammatory cytokines in a dose-dependent manner | Encapsulation Efficiency (%) [1]: 100% | % Entrapment [1]: 99% | Particle Diameter (nm) [2, 4]: 67 nm | Polydispersity index (PDI) [2, 4]: 0.03 | PdI [2, 5]: 0.11 | Size of LNP [2, 5]: 64
